Columns and labels:
K-Ras G12S = biological target: T1, K-Ras G12S (Homo sapiens, UniProt P01116, G12S); experiment: HTRF assay of the K-Ras / SOS1 interaction; assay type: biochemical; conditions: IC50 (against K-Ras G12D) to IC50 (against K-Ras G12S)
T1 construct: made in house; host or cells: E. coli (e.g., BL21 (DE3))
Outline: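 Compounds (duplicates, 10 µM to 0.01 µM) were incubated ≥~10 min with Eu-labelled GST-K-Ras G12S and XL665-labelled His-hSOS1 in HEPES pH 7.4 buffer containing NaCl, DTT, BSA and Igepal. Disruption measured as HTRF emission ratio 665/620 nm, fitted to IC50.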

[1] = biological target: T2, KRAS protein (His-tagged GDP-loaded G12D 1-169) (Homo sapiens, UniProt P01116, G12D); experiment: Covalent modification of KRAS protein, intact-protein LC-MS; assay type: binding; conditions: 24hrs at room temperature, KRAS protein ~2 µM
T2 construct: His-tagged GDP-loaded G12D 1-169
Outline: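 Percent covalent modification derives from deconvoluted intact-mass intensities of compound-adducted versus unmodified KRAS, measured by LC-ESI-MS. Before analysis, ~2 µM GDP-loaded His-KRAS 1-169 was exposed to compound for 24 h at room temperature and acidified with formic acid.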

SMILES: N#Cc1ccn(C(=O)N2C3CCC2CN(c2nc(OC[C@@]45CCCN4C[C@H](F)C5)nc4c(F)c(-c5ccc(F)c6sc(N)c(C#N)c56)c(Cl)cc24)C3)n1 [Compound A224, 1-(3-(7-(2-amino-3-cyano-7-fluorobenzo[b]thiophen-4-yl)-6-chloro-8-fluoro-2-(((2R,7aS)-2-fluorotetrahydro-1H-pyrrolizin-7a(5H)-yl)methoxy)quinazolin-4-yl)-3,8-diazabicyclo[3.2. 1]octane-8-carbonyl)-1H-pyrazole-3-carbonitrile]
- Ratio of IC50 KRAS G12D vs. IC50 KRAS G12S (K-Ras G12S): A (A: indicates that the ratio of IC50 against KrasG12D vs. IC50 against KrasG12S is 1-fold or greater)
- % G12D Modification at 24 hr. [1]: ++ (++ indicates between about 1%- 20% labelling)

Source: patent EP4389751A1, “HETEROCYCLIC COMPOUNDS AND USES THEREOF” (Kumquat Biosciences Inc., priority 2021, dated 2024)
